Values after ≈ are worked out from the molar mass of the structure shown. Each block holds one compound with its values, some of them ahead of it.
Assays:
human hepatocytes [1] = assay: Metabolic stability in human hepatocytes (HH CLint); assay type: in vitro ADME; conditions: 37 °C, 2 h
Method: Metabolic stability in human hepatocytes (HH CLint) was measured by incubating the cells with the test compound at 37 °C for 2 h. An aliquot of the mixture was taken at typically nine defined time points, and the metabolic reaction was stopped by adding ACN. The samples were centrifuged, and the supernatant was analyzed via LC-MS/MS. Intrinsic clearance (CLint) was calculated from the disappearance rate of the parent compound. ,

human hepatocytes [2] = assay: Metabolite identification in human hepatocyte incubations; assay type: in vitro ADME; conditions: 4 μM
Method: (§1) Cryopreserved, pooled primary human, dog, and rat hepatocytes were obtained from BioIVT (previously Celsis IVT). L-15 Leibovitz buffer was placed in a water bath to reach 37 °C. Cryopreserved hepatocytes were transferred from a −150 °C freezer on dry ice and immediately immersed in a preheated water bath kept at 37 °C for thawing. When only a small ice crystal could be seen, the content was emptied into a 50 mL falcon tube filled with warm buffer (maximum four vials/falcon tube). The suspension was centrifuged at room temperature for 3 min at 50 g. The supernatant was removed, the pellet was resuspended in a small volume of buffer, and the falcon tube was refilled with buffer, followed by another centrifugation to wash away any remaining storage buffer. Thereafter, the supernatant was removed, and the pellet was dissolved in a small volume of buffer and diluted to a concentration of about 3–5 million cells/mL. After counting the cells using a Casy cell counter, the suspension was diluted to 1 million viable cells/mL and kept at room temperature until use. The viability cutoff was 80%.
(§2) An aliquot of 245 μL of hepatocyte suspension was added to a round-bottomed 96-deep-well plate using a manual multipipette. The deep-well plate was preincubated for 15 min at 37 °C and 13 Hz. Substrate solutions of the assay compounds were prepared by the robot in a 96-well plate as follows: 4 μL of 10 mM DMSO stock solution, followed by the addition of 96 μL of ACN:water (1:1, v:v) and mixing by shaking. 50 μL from each well were transferred to and combined in a new plate, resulting in 100 μL per well and a dilution of 1:1.
(§3) The reaction was started by the addition of 5 μL of 200 μM substrate solution to the preheated hepatocyte suspension, resulting in a final substrate concentration of 4 μM (0.04% DMSO, <0.5% ACN). The incubation was continued at 37 °C and 13 Hz. At each time point (0, 40, and 120 min), a 50 μL sample was taken out and quenched in 200 μL of cold ACN:methanol (1:1, v:v), and the stopped plates were centrifuged for 20 min (set at 4 °C and 4000 g). The supernatant was diluted by taking 50 μL and mixing it with 100 μL of water. Incubations of the positive controls, albendazole and dextromethorphan, were performed in parallel as described above.
(§4) Structural characterization of metabolites and metabolite profiling were performed using the Waters Acquity ultraperformance liquid chromatography (UPLC) system fitted to a Waters High-Resolution Mass Spectrometer (MS) (Xevo G2-S, Synapt G2-Si, or a Synapt XS MS). The Waters MS systems, equipped with an electrospray ionization (ESI) source, were operated in positive-ion sensitivity mode over a mass range m/z 50–1200 and in negative-ion sensitivity mode over a mass range m/z of 50–1200.
(§5) The reversed-phase gradient elution was performed on an Acquity U(H)-PLC BEH C18 column (2.1 × 100 mm, 1.7 μm, Waters) set at 45 °C. The mobile phases consisted of 0.1% FA in water (A) and ACN (B). […] The injection volume was 2 μL. The MS settings were optimized for the respective MS instrument. […] A scan time of 0.1 s was used, and data were acquired in centroid mode. Collision energy was set to “off” for the low-energy function, whereas in the high-energy MSe functions, the collision energies were typically ramped from 15 to 35 V in the trap cell, with constant collision energies of 20 V in their transfer cells. Cone voltage was set to 25 V for both low- and high-energy functions. For dedicated MS/MS, the m/z of the molecular ion was selected in the quadrupole, and the mass range for fragmentation analysis was typically set between 50 and 1200. The collision energies were either the same as those stated above for MSe data generation or optimized for a specific metabolite.

physchem [3] = conditions: pH 7.4
Method: (§9) LogD was measured using the traditional shake-flask method, with up to ten compounds pooled together. The compounds were dissolved in 10 mM sodium phosphate buffer adjusted to pH 7.4 and an octanol phase (both phases were mixed for 2 h at room temperature). The concentrations in both phases were analyzed by liquid chromatography and quantitative tandem mass spectrometry (LC-MS/MS), and distribution coefficients were determined.

physchem [4] = conditions: 25 °C, pH 7.4, aqueous buffer, thermodynamic from solid
Method: (§10) Solubility was measured as the thermodynamic solubility using a shake-flask approach. Here, DMSO was evaporated from the compound stock solution as the first step. The “dried” compounds were then placed into 10 mM sodium phosphate buffer, adjusted to pH 7.4, and equilibrated at 25 °C for 24 h. The samples were centrifuged, and the solution was analyzed by LC-MS/MS to determine the amount of compound in solution.

[5] = Thermodynamic solubility, shake-flask; conditions: 10 mM sodium phosphate buffer, 25 °C, pH 7.4, aqueous buffer, thermodynamic from solid
Method: as §10

[6] = LogD, shake-flask method (octanol / buffer pH 7.4); conditions: octanol/10 mM sodium phosphate buffer
Method: as §9

dog hepatocytes = assay: Metabolite identification in dog hepatocyte incubations; assay type: in vitro ADME; conditions: Cmpd 28 incubated for 120 min, 4 μM
Method: as §1, §2, §3, §4, §5

rat hepatocytes = assay: Metabolite identification in rat hepatocyte incubations; assay type: in vitro ADME; conditions: Cmpd 28 incubated for 120 min, 4 μM
Method: as §1, §2
The reaction was started by the addition of 5 μL of 200 μM substrate solution to the preheated hepatocyte suspension, resulting in a final substrate concentration of 4 μM (0.04% DMSO, <0.5% ACN). The incubation was continued at 37 °C and 13 Hz. At each time point (0, 40, and 120 min), a 50 μL sample was taken out and quenched in 200 μL of cold ACN:methanol (1:1, v:v), and the stopped plates were centrifuged for 20 min (set at 4 °C and 4000 g). […]

[7] = MetID on in vivo dog samples (plasma, urine); design: species or system dog (beagles); conditions: after Cmpd 28; sampled at 3 h and 30 min
Method: (§6) The workup procedure could vary somewhat depending on the compound and dose, but the general procedure was as follows: Two volumes of ACN/methanol (1:1, v:v) were added to the plasma samples and vortex-mixed to precipitate the proteins. Thereafter, the samples were centrifuged for 10 min (at 10,000 g and 4 °C), and the supernatants were diluted with one volume of water. The urine samples were diluted with one volume of ACN/methanol (1:1, v:v) and centrifuged for 10 min (at 10,000 g and 4 °C), followed by a 1:1 dilution with water.
as §4
(§7) The reversed-phase gradient elution was performed on an Acquity U(H)-PLC BEH C18 column (2.1 × 100 mm, 1.7 μm, Waters) set at 45 °C. The mobile phases consisted of 0.1% FA in water (A) and ACN (B). […] The injection volume was 2 μL. The MS settings were optimized for the respective MS instrument. […] A scan time of 0.1 s was used, and data were acquired in centroid mode. Collision energy was set to “off” for the low-energy function, whereas in the high-energy MSe functions, the collision energies were typically ramped from 15 to 35 V in the trap cell, with constant collision energies of 20 V in their transfer cells. Cone voltage was set to 25 V for both low- and high-energy functions. For dedicated MS/MS, the m/z of the molecular ion was selected in the quadrupole, and the mass range for fragmentation analysis was typically set between 50 and 1200. The collision energies were either the same as those stated above for MSe data generation or optimized for a specific metabolite. Tune parameters for all MS analyses consisted of a capillary energy of 0.5 kV, sampling cone energy of 40 V, source temperature of 150 °C, desolvation temperature of 550 °C, cone gas flow of 0 L/h, desolvation gas flow of 1200 L/h, and nebulizer pressure of 6.5 bar.
(§8) Metabolite identification was conducted by processing the generated data using the MetaboLynx XS browser (Waters), MassMetaSite and the web interface ONIRO (Mass Analytica). […] Accurate masses of metabolites were determined from the protonated molecules in the positive ESI time-of-flight MS (ESI–TOF–MS) mode and from the deprotonated molecules in the negative ESI–TOF–MS mode. […] For those metabolites where no MS/MS data could be acquired, identification was based on the accurate mass of the molecular ion and the fragmentation seen in the MSe spectrum. Relative amounts of detected metabolites were calculated as % of the total MS area by dividing the MS peak area for the metabolite (or parent compound) by the combined MS peak area for the parent compound and all identified metabolites.

[8] = MetID on in vivo rat plasma samples; design: species or system rat (Han Wistar); conditions: after Cmpd 28; sampled at 4 h
Method: as §6, §4, §7, §8

Structure (SMILES): COc1cc(NC(=O)C2CCCCC2C(=O)c2ccc(-c3cc[nH]n3)cc2)ncn1 (stereo not drawn) [Cmpd 17, COc1cc(NC(=O)[C@@H]2CCCC[C@H]2C(=O)c2ccc(-c3cc[nH]n3)cc2)ncn1]
- HH CLint (human hepatocytes [1]): 22 μL/min/1E6
- Metabolites / metabolic pathways identified (human hepatocytes [2]): ketone reduction, aliphatic hydroxylations, N-glucuronidation, amide hydrolysis, and combinations thereof
- logD (physchem [3]): 3.9
- solubility (physchem [4]): 22 µM (≈ 8.92 µg/mL)

Structure (SMILES): Cn1ncc(NC(=O)C2CCCCC2C(=O)c2ccc(-c3cc[nH]n3)cc2)c1C(F)(F)F (stereo not drawn) [Cmpd 25, Cn1ncc(NC(=O)[C@@H]2CCCC[C@H]2C(=O)c2ccc(-c3cc[nH]n3)cc2)c1C(F)(F)F]
- HH CLint (human hepatocytes [1]): 7 μL/min/1E6
- Metabolites / metabolic pathways identified (human hepatocytes [2]): amide hydrolysis was not detected
- logD (physchem [3]): 3.6
- solubility (physchem [4]): 80 µM (≈ 35.6 µg/mL)

Now from value to compound, other results behind:

- HH CLint (human hepatocytes [1]): 4 μL/min/1E6
- solubility at 24 h [5]: 564 µM (≈ 237 µg/mL)
- logD at 2 h [6]: 2
Structure (SMILES): Cn1ncc(NC(=O)C2CCCCC2C(=O)c2ccc(-c3cc[nH]n3)cc2)c1C(N)=O (stereo not drawn) [Cmpd 18, Cn1ncc(NC(=O)[C@@H]2CCCC[C@H]2C(=O)c2ccc(-c3cc[nH]n3)cc2)c1C(N)=O]
- Metabolites / metabolic pathways identified (human hepatocytes [2]): the only metabolite identified was the alcohol formed after the reduction of a ketone

- HH CLint (human hepatocytes [1]): 9 μL/min/1E6
- Metabolites / metabolic pathways identified (human hepatocytes [2]): amide hydrolysis was not detected
- solubility at 24 h [5]: 99 µM (≈ 42.3 µg/mL)
- logD at 2 h [6]: 3
Structure (SMILES): Cn1cc(NC(=O)C2CCCCC2C(=O)c2ccc(-c3cc[nH]n3)cc2)c(C(F)F)n1 (stereo not drawn) [Cmpd 27, Cn1cc(NC(=O)[C@@H]2CCCC[C@H]2C(=O)c2ccc(-c3cc[nH]n3)cc2)c(C(F)F)n1]

- % of the total MS area, Dog Hepatocytes (Mixed gender) (dog hepatocytes): 4%
- % of the total MS area, Rat Hepatocytes (Mixed gender) (rat hepatocytes): no detection
- % of the total MS area, Dog Plasma (Female) [7]: 40%
- % of the total MS area, Rat Plasma (Female) [8]: 1%
- % of the total MS area, Rat Plasma (Male) [8]: 0.5%
Structure (SMILES): Cc1cc(-c2ccc(C(=O)C3CCCCC3C(=O)OC3OC(C(=O)O)C(O)C(O)C3O)cc2)n[nH]1 (stereo not drawn) [Cmpd 28 M2]

Reference: publication PMC12587390, “Metabolite Identification Data in Drug Discovery, Part 1: Data Generation and Trend Analysis” (Molecular Pharmaceutics, 2025)
